For two compounds, pKa results are on record in ChEMBL document CHEMBL1132021, “Synthesis of an imidazo[1,2-e]purine-acridine heterodimer for targeting abasic sites in DNA” (Bioorg Med Chem Lett, 1999).

This data set is described as follows: Ionization state of the molecule at physiological pH was evaluated by potentiometry. The class given is ADME.

SMILES strings stand for the structures.

As a reminder, the pKa is the pH at which an ionisable group is half protonated. The low end stands for a group that gives up its proton readily, the high end for a group that holds its proton tightly. Compound `Nc1ncnc2c1nc(N)n2[C@@H]1O[C@H](CO)[C@@H](O)[C@H]1O` yielded a pKa of 4. Take `COc1ccc2nc3cc(Cl)ccc3c(N)c2c1`: the pKa amounted to 8.99.
